Patent US10363239B2, “Method for inhibiting growth of cancer cells” (Pain Therapeutics, Inc., priority 2013, dated 2019)

Experiments:
more than 65 receptors = assay: Standard binding assay on more than 65 receptors; conditions: 10 μM concentration
glioblastoma cells = assay: Glucose deprivation-induced apoptosis markers (cleaved PARP-1, caspase-3) by Western blotting; type: cell-based, human; conditions: 1 nM; Day 3 and 4
Protocol: . The resultant cell lysates were size-fractionated on SDS-PAGE and Western blotting with antibodies specific for Cleaved […] (Asp214) and caspase-3 (Asp175). The protein bands were quantified by densitometric scanning. […] . Data are mean±S.E.M. of ratios (FIG. 3B) and % inhibition (FIG. 3C). […] N=5. *p<0.01 compared to Day 0. #p<0.01 compared to vehicle (open bars).
. The cells were washed with PBS, incubated in 0.1% fetal bovine serum (FBS) for 16 hours and incubated in glucose-free 0.1% FBS-containing medium for up to 4 days in the presence of vehicle or 1 nM Compound C0105. The cells in the entire well were collected by centrifugation. […] The protein concentrations were measured by the Bradford method.
The cells were homogenized and the obtained homogenates were centrifuged to remove nucleus and mitochondria. […] The level of apoptotic cell death was determined using Western blotting in 50 μg solubilized cell lysates with antibodies against cleaved PARP-1 (Asp^214) and caspase-3 (Asp^175), both at 1:1000 dilution. […] Bands at the relevant molecular masses of Ki67 and PCNA were quantified by densitometric scan. Membranes were stripped, washed 5× in 0.1% PBST (2 minutes each wash) and the actin content analyzed by immunoblotting using monoclonal anti-actin to illustrate even loading.

melanoma cells = assay: Cell proliferation by cell-cycling markers Ki67 and PCNA (Western blots); type: cell-based, human; conditions: 0.1-5 nM; 4 days
Protocol: The effect of contact with Compound C0105 on cell proliferation was determined by the levels of cell-cycling markers: Ki67 and PCNA (proliferating cell nuclear antigen) using Western blots in human melanoma cells. Cells treated with vehicle and 0.1-5 nM C0105 for 4 days were collected, washed and solubilized (lysed). The resultant cell lysates were size-fractionated on SDS-PAGE and Western blotting to determine the levels of Ki67, PCNA and actin (loading control). The protein bands were quantified using densitometric scanning. […] N=4. *p<0.01 compared to vehicle (open bars).
To study the effect of Compound C0105 on PI3K activity, the cancer and primary normal cells were cultured to approximately 60-70% confluency, serum deprived for 4 hours, briefly washed with PBS and treated with vehicle or 0.1, 0.5, 1 or 5 nM Compound C0105 for 24 hours with in 0.1% FBS-containing culture medium. The cells were then washed with PBS, scraped off and collected by centrifugation. The cell pellets were sonicated in ice-cold immunoprecipitation buffer and protein concentrations measured by the Bradford method. […]
Immunoreactivity was visualized by reaction in ECL Plus chemiluminescent reagent for exactly 5 minutes, followed by immediate exposure of the blot to X-ray film (Z & Z Medical). Bands at the relevant molecular masses of Ki67 and PCNA were quantified by densitometric scan. […]

MiaPaCa2 cell implants = assay: Xenograft survival study; type: in vivo, Nu/Nu mice; conditions: 100 mg/kg
Protocol: FIGS. 34A and 34B illustrate Kaplan-Meier survival curves (FIG. 34A) and averaged tumor volumes (FIG. 34B) in a xenograft study in which MiaPaCa2 cells were implanted in Nu/Nu mice. […] FIG. 34B illustrates average tumor volumes (mm3) in mice treated with vehicle alone (black diamonds), gemcitabine (open squares), Compound C0105 at 10 mg/kg (black triangles) and Compound C0105 at 100 mg/kg (open diamonds).
Mice were monitored individually and the treatment effect was compared to each mouse's own original tumor on the treatment day 0. The endpoint of the study was a tumor volume of 1500 mm^3 or 45 days, whichever comes first. The animals were euthanized when the endpoint was reached. Responders were followed longer (survival study). The Table below illustrates the drug treatment administered to the mice.
A third xenograft study was designed to measure survival rather than tumor volume at a designated time point.

SMILES: CN1CCC2(CC1)NCC(=O)N2Cc1ccccc1 [Compound C0105]
- Binding to any of more than 65 assayed receptors (more than 65 receptors): no significant binding
- Glucose deprivation-induced cell death by cleaved PARP-1 and caspase-3 (glioblastoma cells): attenuates glucose deprivation-induced cell death
- Cell proliferation (Ki67 and PCNA levels) (melanoma cells): reduces cell proliferation
- Tumors shrunk to undetectable (MiaPaCa2 cell implants): completely shrunk tumors to being undetectable in three high-dose (100 mg/kg) mice
- Tumor shrinkage compared to mice receiving vehicle (MiaPaCa2 cell implants; mouse found dead at 30 days): more than 90%
